Molecular target: T1, recombinant Axl tyrosine kinase (Homo sapiens, UniProt P30530)
T1 construct: encompassing amino acids 473 to 894 of Axl; GST (N); made in house; host or cells: SF126 insect cells
T1 sequence (P30530 473-894): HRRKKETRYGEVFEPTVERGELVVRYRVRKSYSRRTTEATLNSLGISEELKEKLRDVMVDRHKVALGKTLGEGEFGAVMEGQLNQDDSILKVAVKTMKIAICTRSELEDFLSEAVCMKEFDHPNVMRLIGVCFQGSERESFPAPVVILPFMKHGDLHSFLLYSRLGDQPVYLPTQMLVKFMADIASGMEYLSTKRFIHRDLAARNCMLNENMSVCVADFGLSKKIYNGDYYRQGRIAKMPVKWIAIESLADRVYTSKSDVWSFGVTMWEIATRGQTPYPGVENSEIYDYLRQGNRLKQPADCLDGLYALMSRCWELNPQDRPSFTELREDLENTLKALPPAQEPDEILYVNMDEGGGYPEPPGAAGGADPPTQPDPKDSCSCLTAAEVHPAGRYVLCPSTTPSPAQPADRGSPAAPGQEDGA
Experiment: In vitro Axl kinase assay (AlphaScreen), Test (a)
Format: biochemical
Conditions: test compound at 1 μM; first value quoted
Protocol: Test compounds were prepared as 10 mM stock solutions in dimethylsulphoxide (DMSO) and diluted in DMSO as required. Aliquots (120 nl) of compound dilutions were filled into the wells of a Greiner 384-well low volume (LV) white polystyrene plate (Greiner Bio-one) using acoustic dispensing (Labcyte Echo 550). A 10 μl mixture of recombinant purified Axl enzyme, biotinylated peptide substrate (Biotin poly-GAT; CisBio, Catalogue No. 61GATBLB), 0.2 μM adenosine triphosphate (ATP) and a buffer solution [comprising 20 mM Tris-HCl pH 7.5 buffer, 0.01% v/v Tween, 5 mM dithiothreitol (DTT) and 10 mM manganese chloride] was incubated with the compounds at room temperature for 20 minutes.
Control wells that produced a minimum signal corresponding to 100% inhibited enzyme were created by adding 10 μM of Staurosporine.
The percentage kinase inhibition value is the percentage of Axl tyrosine kinase activity inhibited by the test compound at a concentration of 1 μM.

| Structure (SMILES) | % Axl tyrosine kinase inhibition at 1 μM concentration [%] |
| --- | --- |
| Nc1ncc(-c2cccc(S(=O)(=O)N3CCOCC3)c2)cc1-c1nc2cnccc2o1 [Example 8A.13] | 71.3 |
| CN1CCC(n2cc(-c3cnc(N)c(-c4nc5cc(Br)ccc5o4)c3)cn2)CC1 [Example 7.5] | 99.1 |
| NCc1ccc(-c2cnc(N)c(-c3nc4ccccc4o3)c2)cc1 [Example 2.13] | 99.7 |
| Nc1ncc(-c2ccc(C(=O)NCCN3CCS(=O)(=O)CC3)cc2)cc1-c1nc2cccnc2o1 [Example 45A.12] | 96.3 |
| COc1cc(-c2cnc(N)c(-c3nc4ncccc4o3)c2)ccc1OC1CCCN(C)C1 (stereo not drawn) [Example 43C.9] | 99.9 |
| COc1cc(-c2cnc(N)c(-c3nc4ncccc4o3)c2)ccc1N1CCNCC1 [Example 25.8] | 99.8 |
| Nc1ncc(-c2cn(C3CCNCC3)nc2CO)cc1-c1nc2c(F)cccc2o1 [Example 62.6] | 100.0 |
| COCc1cccc(-c2cnc(N)c(-c3nc4ncccc4o3)c2)c1 [Example 10A.16] | 99.9 |
| COc1cc(-c2cnc(N)c(-c3nc4ncccc4o3)c2)ccc1OC1CCCNC1 (stereo not drawn) [Example 43C.26] | 99.6 |
| CNC(=O)CN1CCC(n2cc(-c3cnc(N)c(-c4nc5ncccc5o4)c3)cn2)CC1 [Example 53.2] | 97.8 |
| Nc1ncc(-c2ccc(C(=O)NCCCN3CCCCC3)cc2)cc1-c1nc2cccnc2o1 [Example 45A.9] | 99.0 |
| Nc1ncc(-c2ccc(C(=O)N3CCC(O)CC3)cc2)cc1-c1nc2ccncc2o1 [Example 11A.2] | 97.5 |
| CN1CCC(N(C)C(=O)c2ccc(-c3cnc(N)c(-c4nc5cccnc5o4)c3)cc2)C1 (stereo not drawn) [Example 45A.3] | 98.0 |
| CN(C)C(=O)CN1CCN(C(=O)c2ccc(-c3cnc(N)c(-c4nc5cccnc5o4)c3)cc2)CC1 [Example 45A.67] | 96.8 |
| COCc1cccc(-c2cnc(N)c(-c3nc4ccccc4o3)c2)c1 [Example 2.15] | 80.2 |
| Nc1ncc(-c2cccc(CN3CCCC3)c2)cc1-c1nc2ccncc2o1 [Example 11A.5] | 97.4 |
| CN1CCC(n2cc(-c3cnc(N)c(-c4nc5cccc(F)c5o4)c3)cn2)CC1 [Example 41.10] | 99.7 |
| CNC(=O)c1nn(C2CCNCC2)cc1-c1cnc(N)c(-c2nc3ccccc3o2)c1 [Example 62.4] | 99.8 |
| CC(C)(C)OC(=O)N1CCC(C(=O)Nc2cccc(-c3cnc(N)c(-c4nc5ncccc5o4)c3)c2)CC1 [Example 10A.3] | 87.2 |
| Nc1ncc(-c2ccc(C(=O)NCCN3CC[C@H](F)C3)cc2)cc1-c1nc2cccnc2o1 [Example 45A.38] | 98.4 |

| Structure (SMILES) | % Axl tyrosine kinase inhibition at 1 μM concentration [%] |
| --- | --- |
| CN1CCC(n2cc(-c3cnc(N)c(-c4nc5cc(F)ccc5o4)c3)cn2)CC1 [Example 7.1] | 99.9 |
| COCc1nn(C2CCNCC2)cc1-c1cnc(N)c(-c2nc3c(F)cccc3o2)c1 [Example 62.7] | 100.0 |
| CNCCOc1ccc(-c2cnc(N)c(-c3nc4ncccc4o3)c2)cc1OC [Example 43C.22] | 98.2 |
| CN(C)C(=O)CN1CCC(n2cc(-c3cnc(N)c(-c4nc5ncccc5o4)c3)cn2)CC1 [Example 53.1] | 99.7 |
| Nc1ncc(-c2ccc(C(=O)NCCCN3CC[C@@H](F)C3)cc2)cc1-c1nc2cccnc2o1 [Example 45A.39] | 98.4 |
| CN1CCC(n2cc(-c3cnc(N)c(-c4nc5ccccc5o4)c3)c(N(C)C)n2)CC1 [Example 41.31] | 99.9 |
| CN1CCN(S(=O)(=O)CCCOc2ccc(-c3cnc(N)c(-c4nc5ncccc5o4)c3)cc2)CC1 [Example 43B.24] | 98.2 |
| CN1CCN(c2ccc(-c3cnc(N)c(-c4nc5ccccc5o4)c3)cn2)CC1 [Example 2.54] | 99.8 |
| CN(C)CCCNC(=O)c1ccc(-c2cnc(N)c(-c3nc4cccnc4o3)c2)cc1 [Example 9A.11] | 98.8 |
| COc1cccc2nc(-c3cc(-c4cnn(C5CCN(C)CC5)c4)cnc3N)oc12 [Example 41.27] | 100.0 |
| N#CCc1ccc(-c2cnc(N)c(-c3nc4ccccc4o3)c2)cc1 [Example 2.51] | 93.1 |
| COC(=O)N1CCC(n2cc(-c3cnc(N)c(-c4nc5ncccc5o4)c3)cn2)CC1 [Example 55.3] | 99.5 |
| CS(=O)(=O)N1CCC(n2cc(-c3cnc(N)c(-c4nc5ncccc5o4)c3)cn2)CC1 [Example 55.1] | 99.0 |
| COc1cc(-c2cnc(N)c(-c3nc4ncccc4o3)c2)ccc1OCCC1CCCCN1C (stereo not drawn) [Example 43C.13] | 99.9 |
| CCN1CCCC1CNC(=O)c1ccc(-c2cnc(N)c(-c3nc4cccnc4o3)c2)cc1 (stereo not drawn) [Example 45A.72] | 99.6 |
| Nc1ncc(-c2cnn(CCN3CCC[C@@H]3CO)c2)cc1-c1nc2ccccc2o1 [Example 31.8] | 99.7 |
| C[C@H](O)C(=O)N1CCC(n2cc(-c3cnc(N)c(-c4nc5cccnc5o4)c3)cn2)CC1 [Example 57.7] | 99.6 |
| COc1cc(-c2cnc(N)c(-c3nc4ncccc4o3)c2)ccc1OCCN(C)C [Example 43C.3] | 99.4 |
| Cc1nn(C2CCNCC2)cc1-c1cnc(N)c(-c2nc3c(C#N)cccc3o2)c1 [Example 62.11] | 99.8 |

Same assay, conditions: test compound at 1 μM; first value quoted; read-out: % Axl tyrosine kinase inhibition at 1 μM concentration

| Structure (SMILES) | inhibition at 1 µM [%] |
| --- | --- |
| COc1ccc2nc(-c3cc(-c4cnn(C5CCN(C)CC5)c4)cnc3N)oc2c1 [Example 35, 3-(6-methoxy-1,3-benzoxazol-2-yl)-5-[1-(1-methyl-4-piperidyl)pyrazol-4-yl]pyridin-2-amine] | 99.6 |
| COc1cc(-c2cnc(N)c(-c3nc4cccnc4o3)c2)ccc1OCCN1CCCC1 [Example 43C.1, 5-[3-methoxy-4-(2-pyrrolidin-1-ylethoxy)phenyl]-3-oxazolo[5,4-b]pyridin-2-yl-pyridin-2-amine] | 99.4 |
| Cc1nn(C2CCNCC2)cc1-c1cnc(N)c(-c2nc3ccccc3o2)n1 [Example 20.20, 3-(1,3-benzoxazol-2-yl)-5-[3-methyl-1-(4-piperidyl)pyrazol-4-yl]pyrazin-2-amine] | 99.9 |
| CN1CCN(CCn2cc(-c3cnc(N)c(-c4nc5ccccc5o4)c3)cn2)CC1 [Example 30, 3-(1,3-benzoxazol-2-yl)-5-[1-[2-(4-methylpiperazin-1-yl)ethyl]pyrazol-4-yl]pyridin-2-amine] | 99.8 |
| Nc1ncc(-c2cnn(C3CCNCC3)c2)nc1-c1nc2ccccc2s1 [Example 19, 3-(1,3-Benzothiazol-2-yl)-5-[1-(4-piperidyl)pyrazol-4-yl]pyrazin-2-amine] | 99.6 |
| Nc1ncc(-c2cnn(C3CCNCC3)c2)cc1-c1nc2ccccc2o1 [Example 2.3, 3-(1,3-Benzoxazol-2-yl)-5-[1-(4-piperidyl)pyrazol-4-yl]pyridin-2-amine] | 98.6 |
